The target of this test is T1, AR (Homo sapiens, UniProt P10275, T878A).
T1 sequence (P10275 1-920 T878A): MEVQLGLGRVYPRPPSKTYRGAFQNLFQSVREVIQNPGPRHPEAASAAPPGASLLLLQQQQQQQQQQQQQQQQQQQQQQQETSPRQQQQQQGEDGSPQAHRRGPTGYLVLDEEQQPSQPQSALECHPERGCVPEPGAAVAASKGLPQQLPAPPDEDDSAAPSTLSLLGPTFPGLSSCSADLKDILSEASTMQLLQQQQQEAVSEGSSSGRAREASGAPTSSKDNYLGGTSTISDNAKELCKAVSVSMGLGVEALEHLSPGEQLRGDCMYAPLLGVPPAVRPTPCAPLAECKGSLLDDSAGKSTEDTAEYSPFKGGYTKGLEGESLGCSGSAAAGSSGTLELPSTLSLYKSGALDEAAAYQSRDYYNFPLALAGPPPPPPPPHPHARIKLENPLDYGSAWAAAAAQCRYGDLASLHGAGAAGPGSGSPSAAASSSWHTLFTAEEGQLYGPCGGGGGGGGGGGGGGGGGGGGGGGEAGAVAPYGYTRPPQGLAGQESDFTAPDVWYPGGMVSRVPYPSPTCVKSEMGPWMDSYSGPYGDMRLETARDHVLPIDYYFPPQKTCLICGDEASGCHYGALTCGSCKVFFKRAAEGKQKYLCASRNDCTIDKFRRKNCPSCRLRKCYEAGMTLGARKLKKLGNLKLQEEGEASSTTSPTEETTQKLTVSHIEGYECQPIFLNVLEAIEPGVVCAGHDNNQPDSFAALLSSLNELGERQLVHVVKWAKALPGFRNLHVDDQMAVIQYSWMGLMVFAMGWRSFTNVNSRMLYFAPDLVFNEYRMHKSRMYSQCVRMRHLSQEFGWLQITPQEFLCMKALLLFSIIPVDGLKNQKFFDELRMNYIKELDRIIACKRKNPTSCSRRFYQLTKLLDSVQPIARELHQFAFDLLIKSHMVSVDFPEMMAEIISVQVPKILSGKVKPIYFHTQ
Briefly: Degradation effect on AR protein activity in prostate cancer cell line Lncap by ELISA method. The arrangement: Degradation Effect of Compounds on AR Protein Activity in Prostate Cancer Cell Line Lncap by ELISA Method; endogenous in cells; host or cells: LNCaP. Conditions: 24 hours, Total Androgen Receptor Sandwich ELISA, read-out: IC50 (the drug concentration at 50% inhibition) of AR protein. In kind it is cell-based. Here is the method: Activity Assay Example 6: Determination of the Degradation Effect of Compounds on AR Protein Activity in Prostate Cancer Cell Line Lncap by ELISA Method
• LNCaP: 1.5*10^LNCaP (human prostate cancer) was purchased from the Chinese Academy of Sciences Cell Bank and cultured in RPMI-1640 medium containing 10% fetal bovine serum. Lncap cells were cultured at 37° C. and 5% CO2 in a humidified incubator. When the coverage reached about 80%, the cells were passaged at a ratio of 1:3. • ELISA kit: Total Androgen Receptor Sandwich ELISA Kit (Brand CST, Cat #12850). 2. Test Method 2.1 Cell Plating
After the cells were centrifuged, they were diluted to 1.5×10^4 cells/100 ul with fresh medium and plated into a 96-well plate with 100 ul per well.
Test compound preparation: The compounds were weighed and diluted with DMSO to stock solution with a concentration of 10 mM for later use. According to the experimental requirements, the drug was diluted from 2 uM, 3 fold dilution for 10 point series, and finally 2 μl of the drug was added to each well, and 2 μl of DMSO was added to the control group.
2.3 After 24 hours, the medium was removed, and the cells were washed once with ice-cold 1×PBS. Then the PBS was removed, and 0.5 ml ice-cold 1× Cell Lysis Buffer containing 1 mM PMSF was added to each well plate and incubated on ice for 20 minutes. […]
Background: ELISA stands for enzyme-linked immunosorbent assay.

SMILES strings stand for the structures.

For `Cc1ncsc1-c1ccc(CNC(=O)[C@@H]2C[C@@H](O)CN2C(=O)[C@@H](NC(=O)COCCCCOc2ccc(-c3ccc(N4C(=S)N(c5ccc(C#N)c(C(F)(F)F)c5F)C(=O)C4(C)C)cn3)cc2)C(C)(C)C)cc1` [Compound A46], the DC50 came to 0.049 µM.

The values above are taken from patent publication US12606552B2, “Bifunctional compound, preparation method therefor, and use thereof” (SUZHOU KINTOR PHARMACEUTICALS, INC., priority 2020, dated 2026).
